Measured values from patent publication US9848602B2, “Use of prothioconazole to induce host defence responses” (priority 2013, dated 2017).

Tests used:
[1] = system: Arabidopsis thaliana plants (gene expression); test: Induction of salicylic acid and pathogen response pathways, Affymetrix ATH1 gene expression analysis; type: in vivo; conditions: 500 g/ha spray; for total number of differentially expressed genes: p≦0.05, vs control
Procedure: Arabidopsis thaliana plants were grown on soil in climate controlled growth chambers for 33 days under defined conditions. For treatment Prothioconazole was formulated to result in a final concentration corresponding to 500 g/ha in a spray application. The plants were sprayed in biological replicates. A control group of similar grown plants was equally treated with a blank formulation. Aerial tissues of the treated plants were harvested 3 h and 6 h after treatment, frozen in liquid nitrogen and stored at −80° C. for further processing. Each biological replicate (3 per treatment and time point) consisted of a pool of 10 plants.
Total RNA was prepared from each sample using the RNeasy Midi kit from Qiagen #75142 according to the manufacturer's recommendations. The RNA was then transcribed into cDNA using Superscript II Reverse Transcriptase (Invitrogen). The biotin-labeled cRNA probes for hybridization were generated from the cDNA using the BioArray HighYield® RNA transcript labeling kit (T7) (Enzo Life Sceinces # ENZ42655-40) according the manufacturer's recommendations. The labelled cRNA probes were subsequently hybridized onto Affymetrix GeneChip Arabidopsis ATH1 Genome Arrays (cat.#900385).
The samples were analyzed using the Affymetrix GeneChip System. The resulting data were processed and analyzed using Genedata Refiner Array, Genedata Analyst, RobiNA (Lohse et al. 2012, Nucleic Acids Res) and MapMan (Usadel et al. 2009, Plant Cell Environment) software packages.

[2] = system: PR1 (pathogenesis-related protein 1) gene (AT2G14610) promoter; test: Induction of defense gene expression, GFP reporter behind the PR1 promoter; type: in vivo, Arabidopsis thaliana; conditions: 300 ppm, 3 days after spraying, mock (background) set as 1.00
Procedure: Arabidopsis thaliana reporter plants containing the coding sequence of a green fluorescent protein (GFP) linked to the salicylate responsive promoter sequence of the PR1 (pathogenesis-related protein 1) gene (AT2G14610) were grown for five days and then sprayed with compounds. On the 3rd day after spraying, plant fluorescence was assessed with a MacroFluo instrument from Leica Microsystems (Wetzlar, Germany). Fluorescences were quantified with the MetaMorph Microscopy Automation & Image Analysis Software (Molecular Devices, Sunnyvale, Calif., United States).

[3] = 3 h after treatment, >2-fold change, p≦0.05
[4] = 6 h after treatment, >2-fold change, p≦0.05

OC(Cc1ccccc1Cl)(Cn1[nH]cnc1=S)C1(Cl)CC1 (centres unmarked) [Prothioconazole, 2-[2-(1-chlorocyclopropyl)-3-(2-chlorophenyl)-2-hydroxypropyl]-1,2-dihydro-3H-1,2,4-triazole-3-thione] was tested, and the “number of down-regulated genes” value [1, 3] was 142, the “number of up-regulated genes” value [1, 3] was 238 and the “total number of differentially expressed genes” value ([1]; 3 h after treatment, >2-fold change) was 380. The “induction of At1g57630 [Toll-Interleukin-Resistance domain-containing protein]” value ([1]; 6 h after treatment) was 3.4 fold, the “induction of At1g66090 [TIR-NBS class of disease resistance protein]” value ([1]; 6 h after treatment) was 2.4 fold and the “induction of At3g59930 [Defensin-like protein 206]” value ([1]; 6 h after treatment) was 3 fold. The “induction of At4g36010 [pathogenesis-related thaumatin family protein]” value ([1]; 6 h after treatment) was 3.8 fold, the “number of downregulated genes” value [1, 4] was 148 and the “number of up-regulated genes” value [1, 4] was 299. For the same molecule, the “total number of differentially expressed genes” value ([1]; 6 h after treatment, >2-fold change) was 447, the “induction of At1g05680 (UDP-glucose: salicylic acid glucosyltransferase)” value ([1]; after 3 h) was 3 fold and the “induction of At2g43820 (UDP-glucose: salicylic acid glucosyltransferase)” value ([1]; after 3 h) was 2.5 fold. The “induction of At1g05680 (UDP-glucose: salicylic acid glucosyltransferase)” value ([1]; after 6 h) was 5.5 fold, the “induction of At2g43820 (UDP-glucose: salicylic acid glucosyltransferase)” value ([1]; after 6 h) was 2.5 fold and the “Relative fluorescence of GFP” value [2] was 2.04.

In the case of O=C(O)c1ccccc1O [Salicylic acid, salicylic acid], the “Relative fluorescence of GFP” value [2] was 1.96.

In the case of CC(C)(C)C(O)(CCc1ccc(Cl)cc1)Cn1cncn1 (centres unmarked) [Tebuconazole], the “Relative fluorescence of GFP” value [2] was 0.73.
